Experimental data published in publication PMC11374953, “Heteroaryl derivatives of suvorexant as OX1R selective PET ligand candidates: Cu-mediated ^18F-fluorination of boroxines, in vitro and initial in vivo evaluation” (EJNMMI Research, 2024).
Several values for one entry are separate records, joined by “and”; a condition that tells them apart may be missing. Equal entries are not always repeated. Entries after “also recorded” stand apart in the source; their conditions may differ.

Assays:
human OX1R = target: T1, human OX1R (Homo sapiens, UniProt O43613); experiment: Radioligand displacement binding, human OX1R (HEK293T membranes); settings: for OX1R selectivity Ki(hOX2R)/Ki(hOX1R): Ki for OX2R divided by Ki for OX1R; for Ki: mean ± SEM, at least three experiments in triplicate, HEK293T membranes, radioligand [^3H]SB974042, read-out: Ki values (nM ± SEM) hOX1R
T1 construct: host or cells: HEK293T
T1 sequence (O43613 1-425): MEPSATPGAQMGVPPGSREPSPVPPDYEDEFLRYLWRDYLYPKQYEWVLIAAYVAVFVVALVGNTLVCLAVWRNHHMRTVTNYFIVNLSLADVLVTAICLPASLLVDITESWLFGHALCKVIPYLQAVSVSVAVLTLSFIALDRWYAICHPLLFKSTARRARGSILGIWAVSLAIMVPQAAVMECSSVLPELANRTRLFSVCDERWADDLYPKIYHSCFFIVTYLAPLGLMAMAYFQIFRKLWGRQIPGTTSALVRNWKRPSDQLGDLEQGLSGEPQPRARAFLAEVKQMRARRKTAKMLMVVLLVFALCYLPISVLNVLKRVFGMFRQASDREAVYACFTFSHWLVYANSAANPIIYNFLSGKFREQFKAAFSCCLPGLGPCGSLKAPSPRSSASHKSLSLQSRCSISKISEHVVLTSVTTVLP
Description: (§1) In comparison with the lead JH112, receptor binding affinities of the test compounds 1a–f have been determined by radioligand displacement studies, as described previously, applying membranes of HEK293T cells transiently expressing the human OX1R or OX2R (Table 1).
Binding affinities to the human orexin receptor subtypes OX1R and OX2R were determined as reported. Membranes were prepared from HEK293T cells transiently transfected with the cDNA for the receptor (OX1R: human HCRTR1 from cDNA Resource Center, Bloomsburg University, Bloomsberg, PA; OX2R: human HCRTR2 from Genscript, Piscataway, NJ). […] Competition binding experiments were conducted in binding buffer (50 mM Tris, 5 mM MgCl2, 0.1 mM EDTA, 5 µg/mL bacitracin and 5 µg/mL soybean trypsin inhibitor at pH 7.4) at final protein concentrations of 4 µg/well (OX1R) and 3 µg/well ([…]) or the OX2R radioligand [^3H]EMPA (specific activity: 84 Ci/mmol) both at a final concentration of 0.7 nM (both purchased from Novandi, Södertälje, Sweden) and varying concentrations of the competing test compounds. Radioactivity was separated by filtration on GF/B glass fiber mats and counted with a scintillation counter (Microbeta from PerkinElmer, Rodgau, Germany). […] The protein concentration was determined applying the method of Lowry. Competition curves were analyzed by nonlinear regression using the algorithms implemented in PRISM 10.2 (GraphPad Software, San Diego, CA) to get IC50 values, which were subsequently transformed into the Ki values employing the equation of Cheng and Prusoff.

human OX2R = target: T2, human OX2R (Homo sapiens, UniProt O43614); experiment: Radioligand displacement binding, human OX2R (HEK293T membranes); settings: mean ± SEM, at least three experiments in triplicate; HEK293T homogenates, radioligand [^3H]EMPA; read-out: Ki values (nM ± SEM) hOX2R
T2 construct: host or cells: HEK293T
T2 sequence (O43614 1-444): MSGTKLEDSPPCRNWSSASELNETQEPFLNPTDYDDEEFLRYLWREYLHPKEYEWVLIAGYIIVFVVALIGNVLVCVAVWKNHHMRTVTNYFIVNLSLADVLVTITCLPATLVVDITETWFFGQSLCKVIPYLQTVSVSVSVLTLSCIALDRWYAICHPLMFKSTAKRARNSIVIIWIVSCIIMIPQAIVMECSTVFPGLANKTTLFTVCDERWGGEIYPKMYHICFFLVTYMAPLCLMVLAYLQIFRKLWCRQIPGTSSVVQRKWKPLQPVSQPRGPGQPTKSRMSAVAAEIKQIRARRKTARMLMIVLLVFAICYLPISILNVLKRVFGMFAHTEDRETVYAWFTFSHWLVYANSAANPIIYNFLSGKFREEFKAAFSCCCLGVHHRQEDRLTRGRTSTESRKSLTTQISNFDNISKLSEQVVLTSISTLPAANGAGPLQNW
Description: as §1
Binding affinities to the human orexin receptor subtypes OX1R and OX2R were determined as reported. Membranes were prepared from HEK293T cells transiently transfected with the cDNA for the receptor (OX1R: human HCRTR1 from cDNA Resource Center, Bloomsburg University, Bloomsberg, PA; OX2R: human HCRTR2 from Genscript, Piscataway, NJ). […] Competition binding experiments were conducted in binding buffer (50 mM Tris, 5 mM MgCl2, 0.1 mM EDTA, 5 µg/mL bacitracin and 5 µg/mL soybean trypsin inhibitor at pH 7.4) at final protein concentrations of 4 µg/well (OX1R) and 3 µg/well (OX2R) when incubating the OX1R specific radioligand [^3H]SB674042 (specific activity: 43 Ci/mmol) or the OX2R radioligand [^3H]EMPA (specific activity: 84 Ci/mmol) both at a final concentration of 0.7 nM (both purchased from Novandi, Södertälje, Sweden) and varying concentrations of the competing test compounds. Radioactivity was separated by filtration on GF/B glass fiber mats and counted with a scintillation counter (Microbeta from PerkinElmer, Rodgau, Germany). Non-specific binding was determined with 10 µM of SB674042 or EMPA. The protein concentration was determined applying the method of Lowry. Competition curves were analyzed by nonlinear regression using the algorithms implemented in PRISM 10.2 (GraphPad Software, San Diego, CA) to get IC50 values, which were subsequently transformed into the Ki values employing the equation of Cheng and Prusoff.

P-gp = P-gp (Homo sapiens, UniProt P08183); experiment: Basolateral-to-apical transport in Caco-2 monolayers with and without the P-gp inhibitor zosuquidar; settings: for effect of P-gp inhibitor zosuquidar (ZSQ) on basolateral-to-apical transport / passive permeability (transcellular passive diffusion): Caco-2 monolayers, 4 h; for effect of P-gp inhibitor zosuquidar (ZSQ) on basolateral-to-apical transport: 5 µM compound, 1 µM ZSQ, n = 8; for passive permeability (transcellular passive diffusion): 5 µM, compared with digoxin; for P-gp substrate assessment: Caco-2 monolayer model with zosuquidar
Sequence of P-gp (P08183 whole entry, the tested form may be a part): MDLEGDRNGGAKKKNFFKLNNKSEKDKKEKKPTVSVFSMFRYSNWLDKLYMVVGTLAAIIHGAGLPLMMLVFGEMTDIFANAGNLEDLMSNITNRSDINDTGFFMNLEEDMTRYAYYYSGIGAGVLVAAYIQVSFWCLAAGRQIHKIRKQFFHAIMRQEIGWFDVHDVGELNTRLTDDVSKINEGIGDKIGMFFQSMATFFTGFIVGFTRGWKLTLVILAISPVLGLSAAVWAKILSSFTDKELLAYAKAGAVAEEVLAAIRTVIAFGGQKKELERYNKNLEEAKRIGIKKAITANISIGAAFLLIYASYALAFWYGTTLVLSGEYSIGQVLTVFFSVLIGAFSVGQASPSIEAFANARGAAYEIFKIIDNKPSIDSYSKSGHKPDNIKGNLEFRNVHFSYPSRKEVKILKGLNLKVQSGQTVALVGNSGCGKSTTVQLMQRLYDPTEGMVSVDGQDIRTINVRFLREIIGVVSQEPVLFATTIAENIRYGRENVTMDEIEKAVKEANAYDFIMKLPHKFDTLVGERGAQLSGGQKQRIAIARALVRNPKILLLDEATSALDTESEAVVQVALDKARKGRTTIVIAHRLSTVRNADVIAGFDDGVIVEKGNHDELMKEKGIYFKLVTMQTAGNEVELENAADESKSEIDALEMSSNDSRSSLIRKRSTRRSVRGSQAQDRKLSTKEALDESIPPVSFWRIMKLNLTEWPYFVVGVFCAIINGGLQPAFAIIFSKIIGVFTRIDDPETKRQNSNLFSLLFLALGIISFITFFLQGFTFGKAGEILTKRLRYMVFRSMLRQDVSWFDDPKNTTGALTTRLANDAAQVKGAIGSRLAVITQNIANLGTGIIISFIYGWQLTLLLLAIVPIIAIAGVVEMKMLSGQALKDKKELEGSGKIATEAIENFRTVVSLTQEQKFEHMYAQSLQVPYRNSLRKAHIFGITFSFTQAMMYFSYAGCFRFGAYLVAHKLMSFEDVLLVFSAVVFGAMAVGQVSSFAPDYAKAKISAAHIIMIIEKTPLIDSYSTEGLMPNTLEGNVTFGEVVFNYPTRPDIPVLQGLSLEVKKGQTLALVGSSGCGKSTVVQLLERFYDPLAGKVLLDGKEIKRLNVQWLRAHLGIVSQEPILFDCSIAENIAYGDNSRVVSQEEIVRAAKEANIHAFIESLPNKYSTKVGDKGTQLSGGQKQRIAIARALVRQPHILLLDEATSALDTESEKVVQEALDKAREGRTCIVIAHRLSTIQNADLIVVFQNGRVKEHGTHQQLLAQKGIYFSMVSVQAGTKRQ
Description: Amounts being present after 4 h in the apical compartment are shown in % of the amount administered to the basal side.
In order to characterize compounds as substrates of P-gp, monolayers of Caco-2 cells were used in line with previous studies [53]. In brief, transport from the basolateral to apical compartment was determined after 4 h in the absence or presence of the P-gp inhibitor zosuquidar (Biomol GmbH, Hamburg, Germany). […] Zosuquidar was administered in a concentration of 1 µM to the basal and apical compartments. Results are expressed in % of the amount administered to the basolateral compartment at the beginning of the experiment. The P-gp substrate digoxin (obtained in tritium-labeled form from ARC, St. Louis, USA and in unlabeled form from Merck KGaA, Darmstadt, Germany) was used as positive control. Monolayer integrity was checked routinely using tritium-labeled inulin (obtained from ARC, St. Louis, USA). […] LC–MS analyses were performed using an ultra-high-performance liquid chromatography (UPLC) (Ultimate 3000, Thermo Fisher Scientific) coupled to a high-resolution mass spectrometer (QExactive Orbitrap Focus, Thermo Fisher Scientific). The analytical column was an Acquity UPLC BEH C18, 1.7 µm, 2.1 × 100 mm column (Waters GmbH) and 80% methanol with 0.1% formic acid was used as mobile phase during an isocratic elution for 5 min at a flow rate of 0.35 mL/min. For sample preparation, 200 µL cell culture supernatant were mixed with 600 µL methanol including 50 ng/mL clopidogrel-d3 as an internal standard. Samples were centrifuged, the solvent of 600 µL supernatant was evaporated to dryness and 100 µL mobile phase was used for reconstitution. The injection volume was 5 µL. All experiments were performed with eight biological replicates. Unpaired t-test was used for analyzing differences with p-values < 0.05 considered significant.

[1] = Dynamic small animal PET imaging of the rat brain; type: in vivo
Description: Small animal PET experiments in rats were performed to allow for an initial comparison in single animals that were injected with [^18F]1c or [^18F[1f alone, after preinjection of suvorexant (1 mg/kg), and after pretreatment with cyclosporine A (25 mg/kg) (Fig. 3). […] Therefore, to elucidate the P-gp-mediated transport of the compounds, specific experiments were performed.
Fig. 3 Time-activity curves and horizontal PET slices of the rat brain after injection of [^18F]1c (A, C) and [^18F]1f (B, D). Single animals were injected with the tracer alone (“control”, blue) compared to animals preinjected with suvorexant (1 mg/kg, 15 min prior to tracer injection, each n = 1; “blocking”, red) or cyclosporine A (25 mg/kg, 30 min prior to tracer injection, each n = 1; green)
Ten- to 13-week-old female CD Sprague–Dawley rats (250–300 g, Charles River) were housed with free access to standard rat chow (Purina) and water at all times. Dynamic small animal PET scans were performed on an Inveon™ microPET scanner (Siemens Healthineers AG, Erlangen, Germany). All rats were continuously anesthetized using isoflurane (2–3% in oxygen, 0.8 L/min) and placed on a heating pad (37 °C) during the PET scan. Rats were injected intravenously in the tail vein with the radioligand in saline (5–15 MBq in 200–300 µL, [^18F]1c or [^18F]1f). Pretreatment with suvorexant (1 mg/kg, 15 min prior to tracer injection) or cyclosporine A (25 mg/kg, […] to tracer injection) was done intravenously. Dynamic PET scans were acquired from 0 to 60 min p.i. and consisted of 23 frames with increasing duration (12 × 10 s, 3 × 1 min, 5 × 5 min and 3 × 10 min). Subsequently, an attenuation scan with a rotating Co-57 point source was performed. The obtained dynamic emission images were subjected to an attenuation and decay correction. After the iterative maximum a posteriori (MAP) estimation for the image reconstruction, regions of interest (ROIs) were drawn for the whole brain. Computational processing of the PET scans was done with the software PMOD (PMOD Technologies LLC). The data obtained were finally converted into values expressed as percent of injected dose per gram (%ID/g).

[2] = Partition coefficient logD7.4 (n-octanol/PBS); type: physicochemical; settings: n-octanol/PBS pH 7.4, mean ± SD
Description: Phosphate-buffered saline (PBS, 480 µL, pH 7.4) and n-octanol (500 µL) were placed in an Eppendorf tube. The radioligand (30–50 kBq, [^18F]1c or [^18F]1f) in PBS (20 µL) was added to the tube, vortexed for 1 min and centrifuged (20,000g, 1 min). Three samples (100 µL) from each layer were collected and measured by a γ-counter (Wallac Wizard 1470, PerkinElmer, USA). After the average cpm values from the triplicate measurements of each layer were calculated, the logD7.4 was determined as the logarithm of the ratio of n-octanol (mean cpm) to PBS (mean cpm). The mean logD7.4 value ± standard deviation was determined by at least three independent experiments each performed in triplicates.

[3] = Radioligand stability in rat plasma; type: in vitro ADME; settings: 37 °C, up to 120 min, radio-HPLC
Description: (§2) The radioligand (1–2 MBq, [^18F]1c or [^18F]1f) in PBS (20 µL) was incubated with human serum, human plasma or rat plasma (400 µL) at 37 °C. Samples (50 µL) were taken at 5, 10, 15, 30, 60 and 120 min, mixed with aqueous TFA (10%, 50 µL) and centrifuged (20,000g, 2 min). The supernatant (20 µL) was analyzed by radio-HPLC.

[4] = Radioligand stability in human plasma and human serum; type: in vitro ADME; settings: 37 °C, up to 120 min, radio-HPLC
Description: as §2

[5] = Plasma protein binding (MicroSpin G-50 columns); type: in vitro ADME; settings: human plasma, 37 °C, read-out: plasma protein binding (PPB) (converted)
Description: The radiotracer (100–200 kBq, [^18F]1c or [^18F]1f) in PBS (2 µL) was incubated with human plasma (100 µL) at 37 °C for 10 min. After preconditioning of the microcolumns according to the instructions of the manufacturer (illustra MicroSpin G-50 columns from GE Healthcare), a sample (40 µL) of was applied to the resin. The microspin tubes were centrifuged (2000g, 2 min) and both, eluate and resin were measured by a γ-counter (Wallac Wizard 1470, PerkinElmer, USA). The PPB was calculated as percentage of bound ligand (cpm of resin) from the total amount of radioactivity (sum of cpm of resin and eluate). Samples from incubation of the radiotracer in saline instead of plasma served as negative control. The mean PPB value was determined from at least two independent experiments each performed in triplicate.

Row | SMILES | OX1R selectivity Ki(hOX2R)/Ki(hOX1R) (human OX1R) | Ki (human OX1R) [nM] | Ki (human OX2R) | effect of P-gp inhibitor zosuquidar (ZSQ) on basolateral-to-apical transport (P-gp) | passive permeability (transcellular passive diffusion) (P-gp) | further results
1 | Cc1ccc(-n2nccn2)c(C(=O)N2CCCN(c3nc4cc(F)ccc4o3)CC2)c1 [1a] | 1.0 | 2.5 ± 0.62 | 2.5 ± 0.36 nM |  |  | 
2 | Cc1ccc(-n2nccn2)c(C(=O)N2CCCN(c3nc4cc(F)ccc4s3)CC2)c1 [1b] | 1.3 | 1.9 ± 0.42 | 2.4 ± 0.49 nM | did not significantly reduce | greater than that of digoxin | 
3 | Cc1ccc(-n2nccn2)c(C(=O)N2CCCN(c3nc4ccc(F)cc4s3)CC2)c1 [1c] | 1.2 | 0.99 ± 0.25 | 1.2 ± 0.2 nM | only moderately inhibited; also recorded: very modest, yet significant, effect | greater than that of digoxin | P-gp substrate assessment (P-gp): not efficient P-gp substrates
4 | Cc1ccc(-n2nccn2)c(C(=O)N2CCCN(c3cnc4cc(F)ccc4n3)CC2)c1 [1d] | 0.7 | 1.2 ± 0.4 | 0.8 nM and 0.83 nM | did not significantly reduce | greater than that of digoxin | 
5 | CC[C@H](C)[C@H]1CN(c2nc3cc(F)ccc3o2)CCCN1C(=O)c1cc(C)ccc1-n1nccn1 [1e] | 77 | 1.2 ± 0.28 | 92 ± 14 nM |  |  | decrease of OX1R affinity compared to JH112 (factor) (human OX1R; fluorine for chlorine replacement): 1.6
6 | CC[C@H](C)[C@H]1CN(c2nc3ccc(F)cc3s2)CCCN1C(=O)c1cc(C)ccc1-n1nccn1 [1f] | 77 | 0.69 ± 0.26 | 53 ± 7.8 nM | no effect; also recorded: did not significantly reduce | similarly high as with digoxin | P-gp substrate assessment (P-gp): not efficient P-gp substrates
7 | Cc1ccc(-n2nccn2)c(C(=O)N2CCCN(c3nc4ccc([18F])cc4s3)CC2)c1 [[^18F]1c, [4-(6-[^18F]fluorobenzo[d]thiazol-2-yl)-1,4-diazepan-1-yl][5-methyl-2-(2H-1,2,3-triazol-2-yl)phenyl]methanone] |  |  |  |  |  | brain uptake after pretreatment with cyclosporine A ([1]; cyclosporine A 25 mg/kg i.v. prior to tracer, n = 1): 0.25 %ID/g; brain uptake after preinjection of suvorexant ([1]; suvorexant 1 mg/kg i.v. 15 min prior to tracer, n = 1): 0.25 %ID/g; time of maximum brain uptake p.i. ([1]; tracer alone i.v.): about 40 s; maximum brain uptake ([1]; tracer alone i.v., whole brain, n = 1): 0.17 %ID/g; logD [2]: 2.28; stability in rat plasma [3]: stable over 120 min; stability in human plasma [4]: stable over 120 min; stability in human serum [4]: stable over 120 min; fraction unbound at 10 min [5]: 0.34
